Source: US20250382298A1, “NITROGEN-CONTAINING COMPOUND AND USE THEREOF” (SUZHOU GENHOUSE BIO CO., LTD., priority 2022, published 2025)

What was measured:
[1] = tested on: HT-29 cells; test: Detection of cell proliferation activity by CCK8 method (HT-29); type: cell-based, human; settings: CCK8, 96 h
Outline: (§1)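 Cells seeded at 1500/well (BT-549, 1640 medium) or 2000/well (HT-29, HCT-116, McCoy's 5A), treated next day with 9-point 1:5 dilutions from 10 μM final, triplicate, for 96 h. CCK8 read at 450 nm after 2 h at 37 °C; inhibition versus DMSO, IC50 by non-linear regression.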

[2] = tested on: HCT-116 cells; test: Detection of cell proliferation activity by CCK8 method (HCT-116); type: cell-based; settings: CCK8, 96 h
Outline: as §1

[3] = tested on: BT-549 cells; test: Detection of cell proliferation activity by CCK8 method (BT-549); type: cell-based; settings: CCK8, 96 h
Outline: as §1

[4] = tested on: HCT-116 cells; test: Mitotic index analysis, pH3 expression in HCT-116 cells; type: cell-based; settings: 24 h treatment
Outline: (§2)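 HCT-116 or HT-29 cells treated 24 h with 9-point 3-fold dilutions from 10 μM, then fixed and immunostained for phospho-histone H3 with DRAQ5 counterstain. Near-infrared fluorescence read at 700/800 nm; pH3 expressed as % of DMSO control and EC50 fitted.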

[5] = tested on: HT-29 cells; test: Mitotic index analysis, pH3 expression in HT-29 cells; type: cell-based, human; settings: 24 h treatment
Outline: as §2

[6] = biological target: cytochrome oxidase P450 2C19 (Homo sapiens (Human), UniProt P33261); test: Inhibition of cytochrome oxidase P450 2C19; type: in vitro ADME; settings: liver microsomes, CYP2C19
[7] = biological target: cytochrome oxidase P450 2C9 (Homo sapiens (Human), UniProt P11712); test: Inhibition of cytochrome oxidase P450 2C9; type: in vitro ADME; settings: liver microsomes, CYP2C9
Protocol: 100 mM K-Buffer: 9.5 mL of stock solution A was mixed with 40.5 mL of stock solution B, the total volume was adjusted to 500 mL with ultrapure water, and the buffer was titrated to pH 7.4 with KOH or H3PO4. The test compound powder was prepared into a stock solution at a certain concentration with DMSO or another organic solvent, which was then further diluted with a proper organic solvent. The liver microsomal in vitro incubation system for the CYP450 enzyme metabolism phenotype study was a biochemical reaction of prepared liver microsomes supplemented with a redox coenzyme and an enzyme-specific selective inhibitor under simulated physiological temperature and environment conditions. The concentration of the parent drug or a metabolite thereof in the incubation solution was determined by LC-MS/MS.

cytochrome oxidase P450 2C19, sequence (P33261 whole entry): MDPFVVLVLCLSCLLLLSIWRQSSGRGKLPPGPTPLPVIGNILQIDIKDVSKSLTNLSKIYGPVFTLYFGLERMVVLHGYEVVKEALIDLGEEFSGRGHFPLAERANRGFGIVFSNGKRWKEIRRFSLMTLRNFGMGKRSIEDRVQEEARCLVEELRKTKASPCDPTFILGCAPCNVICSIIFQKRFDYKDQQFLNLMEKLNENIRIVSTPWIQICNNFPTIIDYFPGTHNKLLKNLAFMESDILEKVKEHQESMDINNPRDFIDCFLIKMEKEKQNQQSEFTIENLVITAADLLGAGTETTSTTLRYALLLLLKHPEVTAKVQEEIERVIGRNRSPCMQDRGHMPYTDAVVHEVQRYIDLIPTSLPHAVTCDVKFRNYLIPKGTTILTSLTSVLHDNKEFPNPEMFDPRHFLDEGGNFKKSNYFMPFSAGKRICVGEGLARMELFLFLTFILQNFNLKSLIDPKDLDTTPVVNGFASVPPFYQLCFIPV
cytochrome oxidase P450 2C9, sequence (P11712 whole entry): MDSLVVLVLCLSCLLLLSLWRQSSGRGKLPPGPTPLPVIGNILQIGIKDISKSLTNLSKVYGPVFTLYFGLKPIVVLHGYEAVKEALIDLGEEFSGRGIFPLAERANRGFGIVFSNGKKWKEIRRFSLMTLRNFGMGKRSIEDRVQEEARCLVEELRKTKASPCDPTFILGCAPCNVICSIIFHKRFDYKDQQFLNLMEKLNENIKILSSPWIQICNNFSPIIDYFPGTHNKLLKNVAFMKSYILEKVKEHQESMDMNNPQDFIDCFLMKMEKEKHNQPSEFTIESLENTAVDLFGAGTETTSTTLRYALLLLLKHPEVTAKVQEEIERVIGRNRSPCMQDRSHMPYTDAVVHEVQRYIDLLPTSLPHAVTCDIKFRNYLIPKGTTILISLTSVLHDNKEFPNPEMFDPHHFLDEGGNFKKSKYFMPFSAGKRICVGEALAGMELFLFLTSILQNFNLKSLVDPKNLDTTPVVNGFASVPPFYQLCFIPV

| SMILES | IC50 ([1]; Homo sapiens) | IC50 ([2]; Homo sapiens) | IC50 ([3]; Homo sapiens) | EC50 ([4]; Homo sapiens) | EC50 ([5]; Homo sapiens) | IC50 [6] | IC50 [7] | IC50 [1] | IC50 [2] | IC50 [3] | EC50 [4] | EC50 [5] |
| --- | --- | --- | --- | --- | --- | --- | --- | --- | --- | --- | --- | --- |
| Cc1cc(NC(=O)c2ccc(NS(=O)(=O)CCO)cc2N2CC3CCC(C3)C2)nc(N2CCC(F)(F)CC2)n1 [Compound 3] | 115 nM | > 10000 nM | 145 nM | > 10000 nM | 495 nM | – | – | – | – | – | – | – |
| O=C(Nc1cc2ccccc2c(N2CCC(F)(F)CC2)n1)c1ccc(NS(=O)(=O)CCO)cc1N1CCC2(CC1)CC2 [Compound 6] | 144 nM | > 10000 nM | 146 nM | > 10000 nM | 175 nM | > 10000 nM | 5280 nM | – | – | – | – | – |
| O=C(Nc1cn2ccnc2c(N2CCC(F)(F)CC2)n1)c1ccc(NS(=O)(=O)CCO)cc1N1CCC2(CC1)CC2 [Compound 8] | 19 nM | > 10000 nM | 7.2 nM | > 10000 nM | 6.4 nM | > 10000 nM | 2660 nM | – | – | – | – | – |
| CS(=O)(=O)Nc1ccc(C(=O)Nc2cn3ccnc3c(N3CCC(F)(F)CC3)n2)c(N2CCC3(CC2)CC3)c1 [Compound 10] | 61 nM | > 10000 nM | 52 nM | > 10000 nM | 183 nM | – | – | – | – | – | – | – |
| O=C(Nc1cc2c(c(N3CCC(F)(F)CC3)n1)COC2)c1ccc(NS(=O)(=O)CCO)cc1N1CCC2(CC1)CC2 [Compound 14] | 30 nM | > 10000 nM | 25 nM | > 10000 nM | 22 nM | – | – | – | – | – | – | – |
| O=C(Nc1cc2ccsc2c(N2CCC(F)(F)CC2)n1)c1ccc(NS(=O)(=O)CCO)cc1N1CCC2(CC1)CC2 [Compound 15] | 107 nM | > 10000 nM | 86 nM | > 10000 nM | 82 nM | – | – | – | – | – | – | – |
| O=C(Nc1cn2ccnc2c(N2CCC(F)(F)CC2)n1)c1ccc(NS(=O)(=O)CCO)cc1N1CC2CCC(C2)C1 [Compound 17] | 27 nM | > 10000 nM | 33 nM | > 10000 nM | 57 nM | – | – | – | – | – | – | – |
| CS(=O)(=O)Nc1ccc(C(=O)Nc2cn3ccnc3c(N3CCC(F)(F)CC3)n2)c(N2CC3CCC(C3)C2)c1 [Compound 19] | 44 nM | > 10000 nM | 69.6 nM | > 10000 nM | 34 nM | > 10000 nM | 9380 nM | – | – | – | – | – |
| O=C(Nc1cc2cccnc2c(N2CCC(F)(F)CC2)n1)c1ccc(NS(=O)(=O)CCO)cc1N1CCC2(CC1)CC2 [Compound 21] | 5.1 nM | > 10000 nM | 8.2 nM | > 10000 nM | 6 nM | > 10000 nM | > 10000 nM | – | – | – | – | – |
| O=C(Nc1cc2cc[nH]c2c(N2CCC(F)(F)CC2)n1)c1ccc(NS(=O)(=O)CCO)cc1N1CCC2(CC1)CC2 [Compound 22] | 20.6 nM | > 10000 nM | 22.1 nM | > 10000 nM | 8.9 nM | – | – | – | – | – | – | – |
| O=C(Nc1cn2ncnc2c(N2CCC(F)(F)CC2)n1)c1ccc(NS(=O)(=O)CCO)cc1N1CCC2(CC1)CC2 [Compound 23] | 22.5 nM | > 10000 nM | 22.6 nM | > 10000 nM | 9.8 nM | – | – | – | – | – | – | – |
| O=C(Nc1cn2cnnc2c(N2CCC(F)(F)CC2)n1)c1ccc(NS(=O)(=O)CCO)cc1N1CCC2(CC1)CC2 [Compound 24] | – | – | – | – | – | – | – | 142 nM | > 10000 nM | 52.8 nM | > 10000 nM | 65.6 nM |
| O=C(Nc1cn2c(F)cnc2c(N2CCC(F)(F)CC2)n1)c1ccc(NS(=O)(=O)CCO)cc1N1CCC2(CC1)CC2 [Compound 34] | 28.8 nM | > 10000 nM | 33.3 nM | > 10000 nM | 14.5 nM | > 10000 nM | 4460 nM | – | – | – | – | – |
| CS(=O)(=O)Nc1ccc(C(=O)Nc2cc3cc[nH]c3c(N3CCC(F)(F)CC3)n2)c(N2CCC3(CC2)CC3)c1 [Compound 47] | 10.5 nM | > 10000 nM | 18.9 nM | > 10000 nM | 6.4 nM | 980 nM | 180 nM | – | – | – | – | – |
